Reference: US20100298370A1, “BENZOTHIAZOLYL THIENOPYRIDINE DERIVATIVES AND USES THEREOF” (priority 2006, published 2010)

Molecular target: T1, VEGF binding to heparin (HS-GAG) (Homo sapiens, UniProt P15692)
T1 construct: purchased Research and Development Systems
T1 sequence (P15692 27-191 isoform P15692-4): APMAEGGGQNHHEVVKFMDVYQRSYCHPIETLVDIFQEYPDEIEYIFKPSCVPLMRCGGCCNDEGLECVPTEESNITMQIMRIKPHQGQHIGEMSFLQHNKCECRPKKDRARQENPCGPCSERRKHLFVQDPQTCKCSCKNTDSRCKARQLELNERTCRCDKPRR
Test: In vitro VEGF to HS-GAG binding assay (ELISA, heparin-BSA coated plate)
Source text: An in vitro assay was used to assess the ability of test compounds of general formulas I and II to inhibit the interaction of VEGF with HS-GAGs. The assay was designed to for determine the concentration required for 50% inhibition (IC-50) for each specific compound. The test compounds were purchased from Life Chemicals Ltd. (Kiev, Ukraine), and the GAG used was heparin (heparin grade I-A; Sigma) conjugated to bovine serum albumin (Sigma) and diluted 1:200 in phosphate-buffered saline (PBS; pH 7.3). The heparin was added to a 96-well polystyrene ELISA plate (NUNC; 0.1 ml per well) and incubated overnight at 4° C. Following the incubation, the plate was washed thoroughly, by immersion, with de-ionized water and then with PBS (pH 7.3) containing Tween 20 (Sigma, 0.05%). The ELISA plate was then blocked with BSA (ICN, 3%, 200 μl per well) for 1 hour at room temperature. Following blocking, the plate was washed with de-ionized water, and then twice with PBS (pH 7.3) containing Tween 20. Recombinant human VEGF (Research and Development Systems) dissolved in PBS supplemented with BSA (0.1%) was added to the ELISA plate. The test compounds were dissolved in DMSO (MERCK), diluted in PBS and added to the wells at concentrations ranging from 0.01 to 200 μM to obtain a final volume 100 μl per well, and incubated for 60 minutes at room temperature with shaking. Following incubation, the plate was washed with de-ionized water and PBS (pH 7.3) containing Tween 20. Anti-human VEGF (1:2000; Research and Development Systems) diluted in PBS supplemented with BSA (1%) was added to the ELISA plate (100 per well) and incubated for 60 minutes at room temperature with shaking. Following incubation, the plate was washed with de-ionized water and then with PBS (pH 7.3) containing Tween 20. Streptavidin-HRP (1:200; Research and Development Systems Cat. No. DY998) diluted in PBS supplemented with BSA (1%) was added to the ELISA plate (100 per well) and incubated for 20 minutes at room temperature with shaking. The plate was then washed with de-ionized water and twice with PBS (pH 7.3) containing Tween 20. The peroxidase substrate chromogen tetramethyl benzidine (TMB; Dako) was added (100 μl per well) to the ELISA plate and incubated at room temperature. After 15 minutes, ELISA Stop Solution (hydrochloric acid 1N, sulfuric acid 3N) was added (100 μl per well) to stop the peroxidase catalyzed colorimetric reaction. The Optical Density (OD) of the samples was measured at 450 nm using an ELISA plate reader (Dynatech MR5000). Data were analyzed with Graphpad Prism software and IC-50 values were determined.
Percent inhibition at 30 μM concentration is shown and for selected compounds IC-50 was established.

inhibition at 30 µM [%]	IC50 [nM]	SMILES
44		CC(C)N1CCc2c(sc(NC(=O)CCc3ccccc3)c2-c2nc3ccccc3s2)C1 [Compound 18, N-[3-(2-benzothiazolyl)-4,5,6,7-tetrahydro-6-(1-methylethyl)thieno[2,3-c]pyridin-2-yl]-3-benzenepropaneamide]
42		Cc1ccc(S(=O)(=O)CC(=O)Nc2sc3c(c2-c2nc4ccccc4s2)CCN(C)C3)cc1 [Compound 39, N-[3-(2-benzothiazolyl)-4,5,6,7-tetrahydro-6-methylthieno[2,3-c]pyridin-2-yl]-(4-methylphenylsulfonyl)acetamide]
71		CCN1CCc2c(sc(NC(=O)c3ccc(Cl)cc3)c2-c2nc3ccccc3s2)C1 [Compound 10, N-[3-(2-benzothiazolyl)-4,5,6,7-tetrahydro-6-ethylthieno[2,3-c]pyridin-2-yl]-(4-chloro)benzamide]
77	200	CN1CCc2c(sc(NC(=O)c3ccc4ncsc4c3)c2-c2nc3ccccc3s2)C1 [Compound 34, N-[3-(2-benzothiazolyl)-4,5,6,7-tetrahydro-6-methylthieno[2,3-c]pyridin-2-yl]-6-benzothiazolecarboxamide]
43		COc1cc2ccccc2cc1C(=O)Nc1sc2c(c1-c1nc3ccccc3s1)CCN(C)C2 [Compound 15, N-[3-(2-benzothiazolyl)-4,5,6,7-tetrahydro-6-methylthieno[2,3-c]pyridin-2-yl]-3-methoxy-2-naphthalenecarboxamide]
79	900	CC(C)(C)C(=O)Nc1sc2c(c1-c1nc3ccccc3s1)CCN(Cc1ccccc1)C2 [Compound 21, N-[3-(2-benzothiazolyl)-4,5,6,7-tetrahydro-6-phenylmethyllthieno[2,3-c]pyridin-2-yl]-2,2-dimethylpropaneamide]
55		CN1CCc2c(sc(NC(=O)c3ccco3)c2-c2nc3ccccc3s2)C1 [Compound 25, N-[3-(2-benzothiazolyl)-4,5,6,7-tetrahydro-6-methylthieno[2,3-c]pyridin-2-yl]-2-furancarboxamide]
31		CN1CCc2c(sc(NC(=O)c3cc4c(ccc5ccccc54)oc3=O)c2-c2nc3ccccc3s2)C1 [Compound 32, N-[3-(2-benzothiazolyl)-4,5,6,7-tetrahydro-6-methylthieno[2,3-c]pyridin-2-yl]-3-oxo-3H-naphtho[2,1-b]pyran-2-carboxamide]
41		CCN1CCc2c(sc(NC(=O)c3ccc(OC)cc3)c2-c2nc3ccccc3s2)C1 [Compound 11, N-[3-(2-benzothiazolyl)-4,5,6,7-tetrahydro-6-ethylthieno[2,3-c]pyridin-2-yl]-4-methoxybenzamide]
31		CC(=O)N1CCc2c(sc(NC(=O)c3cccc(Br)c3)c2-c2nc3ccccc3s2)C1 [Compound 36, N-[3-(2-benzothiazolyl)-4,5,6,7-tetrahydro-6-acetylthieno[2,3-c]pyridin-2-yl]-3-bromobenzamide]
49		CC(C)Oc1ccc(C(=O)Nc2sc3c(c2-c2nc4ccccc4s2)CCN(C)C3)cc1 [Compound 19, N-[3-(2-benzothiazolyl)-4,5,6,7-tetrahydro-6-methylthieno[2,3-c]pyridin-2-yl]-4-(1-methylethoxy)benzamide]
70	500	CCN1CCc2c(sc(NC(=O)c3ccccc3)c2-c2nc3ccccc3s2)C1 [Compound 9, N-[3-(2-benzothiazolyl)-4,5,6,7-tetrahydro-6-ethylthieno[2,3-c]pyridin-2-yl]-benzamide]
41		Cc1ccc(CC(=S)Nc2sc3c(c2-c2nc4ccccc4s2)CCN(C)C3)cc1 [Compound 40, N-[3-(2-benzothiazolyl)-4,5,6,7-tetrahydro-6-methylthieno[2,3-c]pyridin-2-yl]-(4-methylphenyl)thioacetamide]
62		CN1CCc2c(sc(NC(=O)CCSc3ccc(F)cc3)c2-c2nc3ccccc3s2)C1 [Compound 12, N-[3-(2-benzothiazolyl)-4,5,6,7-tetrahydro-6-methylthieno[2,3-c]pyridin-2-yl]-3-[(4-fluorophenyl)thio]propanamide]
61		CN1CCc2c(sc(NC(=O)c3cccc(C(F)(F)F)c3)c2-c2nc3ccccc3s2)C1 [Compound 16, N-[3-(2-benzothiazolyl)-4,5,6,7-tetrahydro-6-methylthieno[2,3-c]pyridin-2-yl]-3-trifluoromethylbenzamide]

More lines, now with the values behind:

SMILES	inhibition at 30 µM [%]	IC50 [nM]
COC(=O)c1ccc(C(=O)Nc2sc3c(c2-c2nc4ccccc4s2)CCN(C(C)C)C3)cc1 [Compound 20]	77	240
CCN1CCc2c(sc(NC(=O)CCS(=O)(=O)c3ccccc3)c2-c2nc3ccccc3s2)C1 [Compound 38, N-[3-(2-benzothiazolyl)-4,5,6,7-tetrahydro-6-ethylthieno[2,3-c]pyridin-2-yl]-3-(phenylsulfonyl)propanamide]	50	
O=C(Nc1sc2c(c1-c1nc3ccccc3s1)CCN(Cc1ccccc1)C2)c1ccc(Br)s1 [Compound 24, N-[3-(2-benzothiazolyl)-4,5,6,7-tetrahydro-6-phenylmethylthieno[2,3-c]pyridin-2-yl]-2-(5-bromo)thiophenecarboxamide]	52	
CC(C)N1CCc2c(sc(NC(=O)CN3C(=O)CCC3=O)c2-c2nc3ccccc3s2)C1 [Compound 31, N-[3-(2-benzothiazolyl)-4,5,6,7-tetrahydro-6-(methylethyl)thieno[2,3-c]pyridin-2-yl]-(2,5-dioxo-1-pyrrolidine)acetamide]	37	
CCOC(=O)N1CCc2c(sc(NC(=O)c3ccccc3)c2-c2nc3ccccc3s2)C1 [Compound 35, N-[3-(2-benzothiazolyl)-4,5,6,7-tetrahydro-6-ethoxycarbonylthieno[2,3-c]pyridin-2-yl]benzamide]	37	
CC(C)N1CCc2c(sc(NC(=O)C3CCCCC3)c2-c2nc3ccccc3s2)C1 [Compound 26, N-[3-(2-benzothiazolyl)-4,5,6,7-tetrahydro-6-(1-methylethyl)thieno[2,3-c]pyridin-2-yl]-cyclohexylcarboxamide]	36	
CC(=O)c1ccc(C(=O)Nc2sc3c(c2-c2nc4ccccc4s2)CCN(Cc2ccccc2)C3)cc1 [Compound 8, N-[3-(2-benzothiazolyl)-4,5,6,7-tetrahydro-6-phenylmethylthieno[2,3-c]pyridin-2-yl]-4-acetylbenzamide]	82	400
CCN1CCc2c(sc(NC(=O)c3cccc(N4C(=O)CCC4=O)c3)c2-c2nc3ccccc3s2)C1 [Compound 17, N-[3-(2-benzothiazolyl)-4,5,6,7-tetrahydro-6-ethylthieno[2,3-c]pyridin-2-yl]-3-(2,5-dioxo-1-pyrrolidinyl)benzamide]	77	300
O=C(COc1ccc(Cl)cc1)Nc1sc2c(c1-c1nc3ccccc3s1)CCN(Cc1ccccc1)C2 [Compound 27, N-[3-(2-benzothiazolyl)-4,5,6,7-3-tetrahydro-6-phenylmethylthieno[2,3-c]pyridin-2-yl]-2-(4-chlorophenoxy)acetamide]	55	
CCN1CCc2c(sc(NC(=O)CCSc3ccccc3)c2-c2nc3ccccc3s2)C1 [Compound 29, N-[3-(2-benzothiazolyl)-4,5,6,7-tetrahydro-6-ethylthieno[2,3-c]pyridin-2-yl]-3-(phenylthio)propanamide]	72	1300
CC(=O)N1CCc2c(sc(NC(=O)c3ccc(C#N)cc3)c2-c2nc3ccccc3s2)C1 [Compound 37, N-[3-(2-benzothiazolyl)-4,5,6,7-tetrahydro-6-acetylthieno[2,3-c]pyridin-2-yl]-4-cyanobenzamide]	75	350
O=C(Nc1sc2c(c1-c1nc3ccccc3s1)CCN(Cc1ccccc1)C2)c1cccs1 [Compound 23, N-[3-(2-benzothiazolyl)-4,5,6,7-tetrahydro-6-phenylmethylthieno[2,3-c]pyridin-2-yl]-2-thiophenecarboxamide]	57	
